In brackets after ≈: the same amount, converted by molar mass. Peptide text beside a SMILES is read from it.
What was measured:
Type in all cases: functional
[1] = system: NCI-H460; assay: Growth inhibitory activity against NCI-H460 human cancer cell line
[2] = system: SK-MEL-5; assay: Growth inhibitory activity against SK-MEL-5 human cancer cell line
[3] = system: P388; assay: Inhibitory activity against murine P388 leukemia cell line; settings: Mus musculus, read-out: ED50 (the source's name)
[4] = system: A498; assay: Growth inhibitory activity against A498 human cancer cell line
[5] = system: OVCAR-3; assay: Growth inhibitory activity against OVCAR-3 human cancer cell line
[6] = system: KM-20L2; assay: Growth inhibitory activity against KM20L2 human cancer cell line
[7] = system: SF-295; assay: Growth inhibitory activity against SF-295 human cancer cell line

| GI50 [1] [µg/mL] | GI50 ([2]; read-out: GI50) [µg/mL] | EC50 [3] [µg/mL] | GI50 ([5]; read-out: GI50) [µg/mL] | GI50 [2] [µg/mL] | GI50 [5] [µg/mL] | Compound | GI50 ([4]; read-out: GI50) [µg/mL] | GI50 ([6]; read-out: GI50) [µg/mL] | GI50 ([7]; read-out: GI50) [µg/mL] | GI50 [4] [µg/mL] | GI50 [6] [µg/mL] | GI50 [7] [µg/mL] |
| --- | --- | --- | --- | --- | --- | --- | --- | --- | --- | --- | --- | --- |
| 0.5 (≈ 0.56 µM) | 0.5 (≈ 0.56 µM) | 3.5 (≈ 3.92 µM) | 0.3 (≈ 0.336 µM) |  |  | CC[C@H](C)[C@@H]1NC(=O)[C@H](CC(C)C)NC(=O)[C@@H]2CCCN2C(=O)[C@H](C(C)C)NC(=O)[C@H](Cc2ccc(O)cc2)NC(=O)[C@@H]2CCCN2C(=O)[C@@H]2CCCN2C(=O)[C@H](CC(C)C)NC1=O [AXINASTATIN 5] (cyclo(ILPPYVPL)) | 2.3 (≈ 2.58 µM) | 0.7 (≈ 0.784 µM) | 1.6 (≈ 1.79 µM) |  |  |  |
| 0.3 (≈ 0.336 µM) |  |  |  | 0.6 (≈ 0.672 µM) | 0.04 (≈ 0.0448 µM) | CC[C@H](C)[C@@H]1NC(=O)[C@H](CC(C)C)NC(=O)[C@@H]2CCCN2C(=O)[C@H](C(C)C)NC(=O)[C@H](Cc2ccc(O)cc2)NC(=O)[C@@H]2CCCN2C(=O)[C@@H]2CCCN2C(=O)[C@H]([C@@H](C)CC)NC1=O [Hymenistatin 1] (cyclo(IIPPYVPL)) |  |  |  | 0.7 (≈ 0.784 µM) | 0.1 (≈ 0.112 µM) | 0.3 (≈ 0.336 µM) |

— ChEMBL document CHEMBL1127233, “Isolation and structure of axinastatin 5 from a republic of comoros marine sponge” (1994)
